Experimental data taken from US8247529B2, “Neoplasia targeting peptides and methods of using the same” (The Board of Trustees of the Leland Stanford Junior …, priority 2008, dated 2012).
“Also recorded” adds a separate entry of the source.

Legend:
[1] = test system: OE21 cells (squamous esophagus carcinoma); experiment: Peptide binding on cell lines; settings: 100 μmol FITC-conjugated peptide, 15 min room temperature
Method: (§1) FITC-conjugated peptide (100 μmol) was incubated with Segl (Panel a), OE21 (Panel c), QhTERT (Panel d) cells. Peptide binding were found in plasma membrane of >90% of Seg1 cells (Panel a).
(§2) 3×10^4-5×10^4 Seg-1, OE21, QhTERT cells were grown in chamber slides.
(§3) Blocking of non-specific binding to these cells was performed by adding 200 μL of 1% BSA diluted in PBS for 30 min. The cells were then incubated with 100 μmol of the targeted FITC conjugated peptide in serum free media for 15 min in room temperature. The scrambled peptide had been used as control. Wash cells 3-time use 200 μL PBS/0.5% TWEEN 20 in room temperature. Cell were fixed by ice cold Acetone 90 second. Then mounted by Vectashield mounting medium with DAPI. Fluorescence images were collected with a confocal microscope (Nikon 1000) at 200×. The fluorescence intensity from the cells in 3 images were averaged to assess peptide binding.

[2] = test system: QhTERT (normal Barrett's) cells; experiment: Peptide binding on cell lines; settings: 100 μmol FITC-conjugated peptide, 15 min room temperature
Method: as §1, §2, §3

[3] = test system: Seg-1 cells (esophageal adenocarcinoma); experiment: Phage binding assay (cell binding of phage clones relative to insertless phage); settings: Seg-1 vs QhTERT, p<0.01
Method: Individual phage clones (2×10^11 pfu) were incubated at room temperature for 30 min with Segl and Q-hTERT cells. The columns represent the mean of measurements from three wells and the bars represent the standard deviation (SD). P-values for each group were calculated using student's t test.
According to the sequencing results some peptide sequence expressed on more than one phage clones. These phage clones had been amplified respectively for the binding assay. Seg-1 cell and Q-hTERT cell (None dysplasia Barrett's cell line) were growth in 6 well plate. 2×10^11 pfu each single clone phage were incubated with both cell in triple wells. Wild-type (no insert) phage (M13KE, New England Biolabs, Beverly, Mass.) was used as control. The incubation, two-step elution and tittering were done as mentioned above. […] Fold binding of each phage relative to none insert phage was measured. Different binding of each phage clone on Seg-1 and QhTERT were calculated using student's t test.

[4] = test system: Seg1 cells; experiment: Competitive inhibition assay; type: binding; settings: unconjugated peptide 100, 500, 1000 μmol (5 or 10 times higher concentration) 15 min prior to FITC-conjugated peptide, P<0.01
Method: Unconjugated peptide was incubated with Seg1 cells 15 min prior to adding of FITC-conjugated peptide in three different concentrations. […] Error bars represent mean±s.e.m. for 3 images. *P<0.01.
Competitive inhibition of targeted peptide binding was evaluated by incubating the cells in culture with unconjugated (no FITC) peptide at concentrations of 100, 500, and 1000 μmol. Three fluorescence images were collected at 200× from each well of the chamber slide using the same gain and exposure time. Images selected for analysis met the following criteria: 1) 70-90% cell confluence, 2) away from the edge of each well, 3) low background binding on cell free area of slide, 4) No change in cellular morphology. The mean cell numbers under three 200× view were record to calculate the percentage of peptide binding cells. Quantification of the fluorescence intensities was done by NIH Image J software to calculate pixel value between each group under the same threshold. Differences in the mean fluorescence intensities were compared using a student's t test.

[5] = test system: duodenal mucosa; experiment: Targeted peptide binding on esophageal mucosa (human tissue specimens); settings: 100 μmol FITC-conjugated peptide in PBS, 15 min, fresh biopsy
Method: (§4) Specimens were incubated with 100 μmol FITC-conjugated peptide in PBS (Panels a, b, c, d). Hematoxylin and eosin staining (Panels e, f, g, h) was performed on adjacent sections to show the pathology diagnosis. In HGD tissue the binding site is a group of consecutive cells located in the lining of esophageal. In normal Barrett's mucosa the binding site is sporadic separated cells in some area of mucosa.
(§5) IRB approval was granted by the Stanford University Medical Center, the VA Palo Alto Health Care Systems, and El Camino Hospital. Human subjects with a history of Barrett's esophagus undergoing routine screening endoscopy were recruited for this study and informed consent was obtained. Subjects with coagulation abnormalities, or low tolerance for endoscopy were excluded from the study. Tissue specimens were collected using standard pinch biopsy from regions of endoscopically apparent Barrett's and squamous esophagus and duodenum mucosa. Histopathology was evaluated by two gastrointestinal pathologists in a blinded fashion according to common criteria (Goldblum, Mod Pathol 2003;16:316-24).
(§6) The tissue specimens were placed immediately after excision in an Eppendorf tube containin PBS at 4° C. PBS and incubated with100 μmol of targeted peptide ‘ASYNYDA’ for 15 minutes at room temperature. After being washed three times with PBS at 4° C., the specimens were embedded in OCT freezing compound (Sakura finetek USA), cut in 6 μm sections, and placed onto Poly-D-lysine coated slides. The tissue specimens were fixed in acetone at 4° C. for 90 seconds, counterstained with DAPI, and mounted in Vectashield. An adjacent serial section of the specimen was cut and stained with H&E for routine histology and comparison.
(§7) For each specimen 10 serial section were screened under microscope. Three highest intensity fluorescence images were collected at 400× using the same gain and exposure time. Fluorescence intensities of images were quantified by NIH Image J software to calculate pixel value between each sample under the same threshold (40, 255). Differences in the mean fluorescence intensities between four tissue types were compared using a student's t test.

[6] = test system: normal (non-dysplastic) Barrett's tissue; experiment: as above; settings: 100 μmol FITC-conjugated peptide in PBS, 15 min, fresh biopsy
Method: as §4, §5, §6, §7

[7] = test system: adjacent normal esophageal mucosa; experiment: as above; settings: 100 μmol FITC-conjugated peptide in PBS, 15 min, fresh biopsy
Method: as §4, §5, §6, §7

[8] = test system: Barrett's with high-grade dysplasia (HGD) tissue; experiment: as above
Method: as §4, §5, §6, §7

[9] = test system: Seg-1 cells; experiment: Peptide binding on cell lines; settings: 100 μmol FITC-conjugated peptide, 15 min room temperature
Method: as §1, §2, §3

[10] = test system: esophageal adenocarcinoma within Barrett's esophagus; experiment: In vivo molecular imaging, small animal model (EGJ rat, fluorescence endoscopy); settings: topical 1 mL 100 μM, 5 min incubation, rinsed
Description: In vivo molecular imaging has been performed in small animal models of esophageal neoplasia to localize binding by targeted peptides. A rigid endoscope for imaging the rat esophagus consists of a 9.5 Fr (3 mm) diameter rigid Hopkins II 0 deg telescope with a 11.5 cm working length (Karl Storz Veterinary Endoscopy, Goleta, Calif.). A 3 Fr (1 mm) diameter instrument channel is available to perform tissue biopsy. Fluorescence excitation light is produced with a 450 to 475 nm passband filter that can be manually placed into the optical path of a xenon (175 W) light source, and is delivered to the endoscope via a light guide. Fluorescence images were collected with 510 nm barrier filter to block the excitation light, and detected with a color CCD camera. The molecular imaging studies were performed in the surgically-altered (EGJ) rats after 36 weeks. The rats were fasted overnight, anesthetized using inhaled isoflurane, and placed in the supine position. The extremities and incisors were restrained to prevent injury to the animal. The endoscope was inserted into the distal esophagus using ˜1 to 2 ml of air injected through an instrument port to dilate the esophageal lumen. The FITC-labeled target peptide was topically administered through the instrument channel onto the distal esophagus in a 1 mL solution diluted in PBS at a concentration of 100 μM. After incubation for 5 minutes, excess peptide was rinsed off with tap water, and binding was evaluated by fluorescence. […] A complete examination usually lasts <2 minutes.

[11] = test system: TE7 cells; experiment: Peptide binding on cell lines; settings: FITC-conjugated peptide
Method: as §3

[12] = test system: GIL hTERT(HGD) cells; experiment: Peptide binding on cell lines; settings: FITC-conjugated peptide
Method: as §3

[13] = test system: high-grade dysplasia in Barrett's esophagus; experiment: Clinical imaging (fluorescence endoscopy of distal esophagus); type: in vivo; settings: human, topical ~3 ml 10 μM
Description: Endoscopic images collected in vivo of distal esophagus in human subject with Barrett's esophagus and high grade dysplasia on white-light endoscopy (Panel a) and fluorescence imaging (Panel b).
A prototype endoscope was used to collect fluorescence images of peptide binding from human subjects with Barrett's esophagus and high-grade dysplasia using the target peptide labeled with FITC. With IRB approval and informed consent, human subjects with a history of Barrett's esophagus and biopsy proven high-grade dysplasia scheduled for endoscopic mucosal resection were recruited into the study. After esophageal intubation, a 10 second video was collected in the white light mode. Then, ˜3 ml of peptide at a concentration of 10 μM was administered topically to the distal esophagus using a mist spray catheter. After 5 minutes for incubation, excess peptide was gently rinsed off with water, and another 10 second video was collected of the peptide targeted fluorescence image. The mucosa of the distal esophagus was then removed by endoscopic mucosal resection. Each video stream was exported into individual frames.
(§8) No distinct architectural lesions can be appreciated. […] Targeted biopsies were collected from sites suspicious for HGD, non-dysplastic Barrett's esophagus. The specimens were embedded in OCT media, cooled to […], and cut into 10 μm horizontal sections on a cryostat.

[14] = test system: Barrett's mucosa with high-grade dysplasia; experiment: Confocal fluorescence of frozen sections of targeted biopsies after clinical imaging; type: binding; settings: biopsies after topical administration in human subjects, 400×
Method: (§9) Routine histology (H&E) of corresponding images is shown in Panel c and Panel d, magnification 400×.
as §8
(§10) The specimens were then evaluated for fluorescence on a tabletop confocal microscope, and an adjacent section was formalin fixed and stained with H&E for evaluation by two pathologists. […] Routine histology (H&E) of the corresponding images (Panels c and d) from adjacent frozen sections are also shown for purposes of comparison, magnification 400×.

[15] = test system: Barrett's mucosa with no dysplasia; experiment: as above; type: binding; settings: biopsies after topical administration in human subjects, 400×
Method: as §9, §8, §10

## ASYNYDA
[1]
  peptide binding to OE21 cells: didn't binding
[2]
  peptide binding to QhTERT cells: didn't binding
[3]
  fluorescence intensity with Seg-1 than with QhTERT cells: 5 times
[4]
  inhibition of FITC-conjugated peptide binding to Seg1 cells by unconjugated peptide: can be inhibited
[4]; listed as unconjugated peptide 17
  inhibition of FITC-conjugated peptide binding to Seg1 cells by unconjugated peptide: could be inhibited
[5]
  peptide binding to duodenal mucosa: did not bind
[6]
  peptide binding to normal Barrett's tissue: bound
[7]
  peptide binding to adjacent normal esophageal mucosa: did not bind
[8]; 100 μmol FITC-conjugated peptide in PBS, 15 min, fresh biopsy
  peptide binding to Barrett's with high-grade dysplasia tissue: bound
[8]; HGD vs Barrett's, duodenal and normal esophageal mucosa, P<0.01
  quantization of peptide binding (fluorescence intensity, NIH Image J), HGD vs other tissues: higher preferential bind on HGD than other tissues

## ASYNYDA-GGGSK-FITC [Peptide 17-FITC]
[9]
  percentage of Seg-1 cells with peptide binding on plasma membrane: > 90%
[10]
  average target-to-background ratio: 5±2
[10]; listed as FITC-labeled target peptide
  fluorescence at site of lesion after topical peptide: Increased fluorescence intensity was observed at the site of the lesion
[10]; listed as target peptide
  fluorescence at site of lesion after topical peptide: increased fluorescence intensity at the site of the lesion
[11]
  percentage of TE7 cells with peptide binding on cytoplasm: 37%
[12]
  percentage of GIL hTERT(HGD) cells with peptide binding on cytoplasm: 1%
[13]; 5 min incubation, rinsed, listed as FITC-labeled target peptide
  fluorescence at site of lesion after topical peptide: increased fluorescence intensity at a site; also recorded: increased fluorescence intensity at the site of the lesion
[13]; mean fluorescence of 5 independent regions
  target-to-background ratio (HGD vs non-dysplastic Barrett's metaplasia): 1.52
[14]; listed as FITC-labeled peptide
  binding to Barrett's mucosa with high-grade dysplasia (frozen section): significant binding
[14]; listed as target peptide
  binding to Barrett's mucosa with high-grade dysplasia (frozen section): Significant binding
[15]
  binding to Barrett's mucosa with no dysplasia (frozen section): minimal binding

## YANSAYD [scrambled peptide-FITC]
[9]
  peptide binding to Seg-1 cells: did not bind on any cells
[9]; listed as Scrambled FITC-conjugated peptide
  peptide binding to Seg-1 cells: no binding
